System: MAGP-1
Test: MAGP-1 screening method: MAGP-1 mRNA (RT-qPCR, normalized to GAPDH) in treated normal human dermal fibroblasts
Format: cell-based
Conditions: 48 hours treatment
Protocol: Normal human dermal fibroblasts (Cascade Biologics) were cultured in 100 mm plates with 10 ml of DMEM with 10% serum and incubated for 24 hours at 37° C. and 10% CO2. After 24 hours, stock solutions of test compounds/plant extracts were made in appropriate solvents (e.g., DMSO). Cells were treated with test material or respective vehicle control diluted in growth medium for 48 hours in a humidified 37° C. incubator with 10% CO2. After incubation, growth medium from each plate was removed and 800 ul of TRIzol Reagent (Invitrogen) was added to the plates. Cell lysates were collected and placed in −80° C. freezer until RNA isolation and analysis.
RNA was isolated by following the manufacturer's procedures. Briefly, the cell lysates were brought to room temperature. 0.2 ml of chloroform per 1 ml of TRIzol® Reagent was added. The tubes were shaken vigorously for 15 seconds and incubated at ambient temperature for 2 to 3 minutes. The samples were centrifuged at 12,000×g for 15 minutes at 2 to 8° C. Following centrifugation; the mixture separated into multiple phases, and RNA remains exclusively in the upper aqueous phase.
The aqueous phase was then transferred to a fresh tube. The RNA was precipitated from the aqueous phase by mixing with 0.5 ml of isopropyl alcohol per 1 ml of TRIzol® Reagent was used for the initial homogenization. Samples were incubated at 15 to 30° C. for 10 minutes and centrifuged at 12,000×g for 10 minutes at 2 to 8° C. […] The sample was mixed by vortexing and centrifuged at 7,500×g for 5 minutes at 2 to 8° C. The RNA pellet was briefly air dried. RNA was dissolved in RNase-free water, and the concentration of total RNA was determined by using Nanodrop (Thermo Scientific, DE).
Reverse Transcription (RT) reactions were conducted in a total volume of 20 μl. The RT mixture was prepared to contain 2 μl 10× TaqMan RT buffer, 4.4 μl 25 mM MgCl2, 4.0 μl dNTP mix, 1.0 μl Random Hexamer, 0.4 μl RNase Inhibitor, 0.5 μl MultiScribe Reverse Transcriptase (50 U/ml), 2.0 μg of RNA, and RNase-free water to make up the final volume of 20 μl. […] After the RT step, the reactions were stored at −20° C. for qPCR analysis.
Quantitative Polymerase Chain Reaction (qPCR) was conducted in a total volume of 20 μl. Applied Biosystems (AB) Universal PCR master mix was used. The mixture was prepared to contain 10 μl of Taqman Universal PCR mix, 1 μl of primer and probe mix, 2 μl of RT product, and 7 μl of deionized water.
The temperature profiles for QPCR were 50° C. for 2 min, and 95° C. for 10 min for 1 cycle, then at 95° C. for 15 sec, and 60° C. for 1 min for 40 cycles. Values for MAGP-1 mRNA were collected along with those for the reference genes GAPDH.

Compound | Activity Level (percent increase in mRNA for MAGP-1 vs vehicle control) (concentration 0.01%) | Activity Level (percent increase in mRNA for MAGP-1 vs vehicle control) (concentration 0.001%)
Cc1cccc(Cc2nc3ccccc3n2CC(=O)N2CCOCC2)c1 [Compound of structure II, 2-{2-[(3-methylphenyl)methyl]-1H-1,3-benzodiazol-1-yl}1-(morpholin-4-yl)ethan-1-one] | ++++ (++++: >80%) | 
CC(C)CN(Cc1ccc(OS(C)(=O)=O)cc1)S(=O)(=O)c1ccccc1 [Compound of structure I, 4-((N-isobutylphenylsulfonamido)methyl)phenyl methanesulfonate] | ++++ (++++: >80%) | 
O=C(O)CCSCCC(=O)O [Thiodipropionic acid (TDPA), Thiodipropionic acid] |  | ++ (++: 41-60%)
lysine-threonine-phenylalanine-lysine [KTFK] |  | ++++ (++++: >80%)

— patent US10849840B2, “Compositions and methods for stimulation MAGP-1 to improve the appearance of skin” (New Avon LLC, priority 2010, dated 2020)
